Where “and” joins values, the source holds several entries; their conditions need not be identical. Equal values may be shown once. Read-outs that look alike come from different tables or passages of the source.
Legend:
[1] = test system: MCF-7 cells; experiment: LDH cytotoxicity test; conditions: 24 h, up to 10^−4 M
Experimental: Cytotoxicity was assessed by lactate dehydrogenase (LDH) release. For LDH measurement, Pierce LDH Cytotoxicity Assay Kit (Thermo Scientific, Rockford, USA) was used. MCF-7 cells were seeded at 2.8×10^5 in a transparent 96-well plate, and corner cells of the plate were filled with PBS to prevent the edge effect. SF medium containing DMEM without phenol red, 1% charcoal-stripped FBS, and 4 mM L-glutamine were used for this assay. Plates were incubated for 24 h, and then the cells were treated with test compounds at concentrations ranging from 10^−14 to 10^−4 M or vehicle for another 24 h. On day 3, culture supernatant was collected in a separate 96-well plate, and the assay was continued according to the manufacturer’s instructions. Final absorbance was measured with the microplate reader at 490 and 680 nm. […] Vehicle control was 0.1% EtOH or DMSO. All the exposures were in triplicate, and the experiment was carried out twice.

[2] = test system: MCF-7 cells; experiment: MCF-7 cell proliferation assay (MTT reduction); type: cell-based, human; conditions: MCF-7 cells, MTT
Experimental: MCF-7 cell line which is sensitive to estrogen (ERα^+) was kindly provided by Dr. Sari Tojkander (Department of Veterinary Biosciences, Faculty of Veterinary Medicine, University of Helsinki). Cells were usually grown in T25 or T75 flasks containing DMEM with or without phenol red and supplemented with 7–10% FBS and 4 mM L-glutamine at 37°C in 5% CO2/95% humidified atmosphere. In order to eliminate the disturbing effect of hormones usually present in FBS, cell culture medium supplemented with commercially available charcoal-stripped FBS and 4 mM L-glutamine (SF medium) was used for experiments.
The effect of EEDCs on the proliferation of MCF-7 cells was assessed as previously described by measuring the capacity of the cells in each well to reduce MTT reagent (Van Meeuwen et al. [2007]). Approximately 5000 cells/200 μL of SF medium containing DMEM without phenol red, 5% charcoal-stripped FBS, and 4 mM L-glutamine were seeded per well in a 96-well cell culture plate. On day 2, cells were treated with the SF medium containing test compounds or vehicle. The final concentration of the solvents DMSO and EtOH was lower than 0.1%. On day 5, the SF medium containing test compounds or vehicle were refreshed. On day 8, cells were washed with PBS twice and then incubated with the SF medium containing 1 mg/mL MTT reagent for 1 h. The ability of MCF-7 cells to reduce MTT was measured at the reference wavelength of 595 nm using a microplate reader (Multiskan Ascent, Thermo Fisher Scientific). All the exposures were in triplicate.
The dose-response curves of test samples were plotted against logarithmic-transformed concentrations.

[3] = test system: S. cerevisiae BMA64/luc; conditions: values higher than 2 are considered toxic
Experimental: Yeast bioluminescent assay was performed as previously described (Omoruyi and Pohjanvirta [2018]). Two recombinant yeasts, Saccharomyces cerevisiae BMAEREluc/ERα and Saccharomyces cerevisiae BMA64/luc, were kindly provided by Dr. Johanna Rajasärkkä, Department of Food and Environmental Sciences, Faculty of Agriculture and Forestry, University of Helsinki. In the BMAEREluc/ERα, human ERα is expressed. After estrogen-like chemicals bind to ERα, the dimerized receptor binds to a specific DNA sequence called estrogen response element (ERE), in the promotor region of the luc reporter gene, inducing its expression. In BMA64/luc, the luciferase is expressed constitutively, and this strain can be used for the evaluation of cytotoxicity of test compounds.
Both strains were revived from glycerol stock solution on agar and broth forms of synthetic complete medium supplemented with the required amino acids. After the absence of contamination was confirmed by observing single colonies’ morphology on agar plate, approximately 10 μL of cultured yeasts in broth was transferred to 4 mL of synthetic defined (SD) medium supplemented with the required amino acids. The culture was incubated at 30°C on a shaker incubator (200 rpm). After 24-h incubation, the culture was diluted with SD broth to reach the optimal density (OD600) of 0.4 CFU/mL. Subsequently, the culture was incubated in the same incubation condition until the OD600 reached 0.6–0.7 CFU/mL.
Next, 90 μL of cultured yeasts containing 1:20 luciferin solution (0.042 g luciferin dissolved in 9.75 mL of 0.2 M trisodium citrate, and 5.525 mL of 0.2 M citrate, pH 5) was pipetted into every well of a white 96-well flat-bottom plate, and 10 μL of test compounds in a defined concentration range (diluted in 5% EtOH) were added. The plate was incubated at 30°C for approximately 2.5 h, and was then shaken briefly. The luminescence measurement was performed with Luminoskan Ascent microplate luminometer (Thermo Labsystems) using the recommended settings as follows: 1000 ms integration time, single measurement mode, shaking at 60 rpm for 5 s prior to measurement.
Each concentration of test compounds and controls in the assay was tested in triplicate, and the experiment was performed twice.
* The Correction Factor is the luminescence of the strain BMA64/luc with blank solvent divided by the luminescence of the control strain with the sample. Values higher than 2 are considered toxic (Leskinen et al. 2005).
* The Correction Factor is the luminescence of the strain BMA64/luc with blank solvent divided by the luminescence of the control strain with the sample. Values higher than 2 are considered toxic (Leskinen et al. 2005). […] Each experiment was performed in triplicate.

[4] = test system: MCF-7 cells; set-up: method as in Blanquer-Rosselló et al. [2013]; conditions: 0.001–20 μM, ref Blanquer-Rosselló et al. [2013]; cited from earlier work
[5] = test system: MCF-7 cells; experiment: In vitro micronucleus assay for cytokinesis block; type: cell-based, human; conditions: 24 h; for Micronuclei per 1000 binucleated cells, Replicates: single replicate values
Experimental: The genotoxicity of EEDCs to MCF-7 cells was assessed by the in vitro micronucleus assay for cytokinesis block. MCF-7 cells were seeded at a density of 5×10^4/well in a 12-well plate in SF medium containing DMEM, 7% charcoal-stripped FBS and 4 mM L-glutamine. These cells were treated with test compounds or the positive control for 24 h. Then, cells were washed twice with PBS, treated with 2 μg/mL cytochalasin B, and incubated for 1.5–2 normal cell cycle lengths (~24 h for MCF-7 cells). Finally, cells were washed with PBS and fixed with 4% paraformaldehyde for 10–15 min (in PBS, pH 6.9). Before staining cells with 5% Giemsa stain for 20 min, plates were washed again with PBS and dried. The frequency of micronuclei per 1000 binucleated cells was counted for each well, and the ratio of micronucleus frequency in treated vs. control cells was defined as fold induction. Cells in mitosis were omitted.

[6] = test system: MCF-7 cells; set-up: method as in Lei et al. [2017]; conditions: 10^−4 M, 24-h incubation, LDH leakage; ref Lei et al. [2017]; cited from earlier work

Compound: CC(C)=CCc1c(O)cc(O)c2c1O[C@H](c1ccc(O)cc1)CC2=O [8-PN, 8-prenylnaringenine]
- maximum level of cytotoxicity (LDH release) [1]: less than 2.5%
- EC50 ([2]; Homo sapiens, MCF7, hormone-depleted medium, read-out: EC50 (proliferative effect)): 4.98 nM
- efficacy (maximum induction of cell growth) compared with 17β-estradiol [2]: about half
- Correction Factor ([3]; 5% DMSO, 10^−4 M): 3.27±0.64
- Correction Factor ([3]; 5% DMSO, 10^−6 M): 3.31±0.92
- Correction Factor ([3]; 5% DMSO, 10^−8 M): 2.62±0.30
- Correction Factor ([3]; 5% DMSO, 10^−10 M): 2.02±0.15
- Correction Factor ([3]; 5% DMSO, 10^−12 M): 2.32±0.56
- Correction Factor ([3]; 5% DMSO, 10^−14 M): 2.09±0.35
- Correction Factor ([3]; 5% ethanol, 10^−4 M): 1.05±0.21
- Correction Factor ([3]; 5% ethanol, 10^−6 M): 0.94±0.14
- Correction Factor ([3]; 5% ethanol, 10^−8 M): 0.97±0.04
- Correction Factor ([3]; 5% ethanol, 10^−10 M): 1.03±0.16
- Correction Factor ([3]; 5% ethanol, 10^−12 M): 0.92±0.14
- Correction Factor ([3]; 5% ethanol, 10^−14 M): 0.98±0.12
- mitochondrial function and ROS production [4]: improved mitochondrial function and decreased ROS production
- Micronuclei per 1000 binucleated cells, Average ([5]; 10^−7 M): 22.33 per 1000 binucleated cells
- Micronuclei per 1000 binucleated cells, Replicates ([5]; 10^−7 M): 24 per 1000 binucleated cells and 20 per 1000 binucleated cells and 23 per 1000 binucleated cells
- Micronuclei per 1000 binucleated cells, Average ([5]; 10^−8 M): 18.67 per 1000 binucleated cells
- Micronuclei per 1000 binucleated cells, Replicates ([5]; 10^−8 M): 16 per 1000 binucleated cells and 19 per 1000 binucleated cells and 21 per 1000 binucleated cells

Compound: CC(C)(c1ccc(O)cc1)c1ccc(O)cc1 [BPA, bisphenol A]
- increase of MCF-7-cell mortality [6]: more than 80%
